The record followed here is US8759379B2, “Inhibitors of cytochrome P450” (Gilead Sciences, Inc., priority 2008, dated 2014).

The assay addresses T1, CYP450 3A4 (Homo sapiens, UniProt P08684).
T1 construct: Pooled (n≧15 donors) human hepatic microsomal fraction was obtained from BD-Gentest; tissue BD-Gentest (Woburn, Mass.); host or cells: pooled human liver microsomes (n≥15 donors)
As to the kind of experiment: CYP3A inhibition assay (terfenadine oxidase, human hepatic microsomal fraction). The assay is classed as biochemical. The note with it: pooled human hepatic microsomes 0.25 mg/mL, terfenadine 3 μM. Here is the method: Pooled (n≧15 donors) human hepatic microsomal fraction was obtained from BD-Gentest (Woburn, Mass.) who also supplied hydroxy-terfenadine, 4′-hydroxydiclofenac and NADPH regenerating system. Ritonavir was prepared from commercial Norvir® oral solution (Abbott Laboratories, Abbott Park, Ill.). Other reagents were from Sigma-Aldrich (St. Louis, Mo.) and included terfenadine, fexofenadine, BRL 15572, diclofenac and mefenamic acid.
Incubations were performed in duplicate in 50 mM potassium phosphate buffer, pH 7.4 with NADPH regenerating system used as described by the manufacturer. […] The final substrate concentrations used were equal to the apparent Km values for the activities determined under the same conditions. Inhibitors were dissolved in DMSO, and the final concentration of DMSO, from both substrate and inhibitor vehicles, was 1% (v/v). Incubations were performed at 37° C. with shaking and were initiated by addition of substrate. Aliquots were then removed at 0, 7 and 15 minutes. Samples were quenched by treatment with an acetonitrile, formic acid, water (94.8%/0.2%/5%, v/v/v) mixture containing internal standard. Precipitated protein was removed by centrifugation at 3000 rpm for 10 min and aliquots of the supernatant were then subjected to LC-MS analysis.
The LC-MS system consisted of a Waters Acquity UPLC, with a binary solvent manager and a refrigerated (8° C.) sample organizer and sample manager, interfaced to a Micromass Quattro Premier tandem mass spectrometer operating in electrospray ionization mode. The column was a Waters Acquity UPLC BEH C18 2.1×50 mm, 1.7 μm […]. Mobile phases consisted of mixtures of acetonitrile, formic acid and water, the composition for mobile phase A being 1%/0.2%/98.8% (v/v/v) and that for mobile phase B being 94.8%/0.2%/5% (v/v/v). The injection volumes were 5 μL and the flow rate was 0.8 mL/min. Concentrations of metabolites were determined by reference to standard curves generated with authentic analytes under the same conditions as the incubations. […]

Each structure is given as a SMILES string.

T1 sequence (P08684 whole entry): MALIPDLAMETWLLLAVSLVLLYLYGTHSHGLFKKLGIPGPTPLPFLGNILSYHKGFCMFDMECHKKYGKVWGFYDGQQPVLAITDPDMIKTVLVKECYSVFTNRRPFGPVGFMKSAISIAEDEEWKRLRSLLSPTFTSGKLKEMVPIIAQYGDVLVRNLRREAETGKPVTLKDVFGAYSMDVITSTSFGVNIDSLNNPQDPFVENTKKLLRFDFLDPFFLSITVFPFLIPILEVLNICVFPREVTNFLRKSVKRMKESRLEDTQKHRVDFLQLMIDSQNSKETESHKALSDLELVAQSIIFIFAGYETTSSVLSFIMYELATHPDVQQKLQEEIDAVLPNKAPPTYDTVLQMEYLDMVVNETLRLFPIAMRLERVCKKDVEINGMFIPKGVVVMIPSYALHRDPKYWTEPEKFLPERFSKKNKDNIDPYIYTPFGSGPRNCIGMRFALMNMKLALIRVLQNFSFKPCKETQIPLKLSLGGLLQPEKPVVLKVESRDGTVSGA

Usually IC50 stands for the point on the concentration scale where inhibition reaches its midpoint. For the compound `CC(C)CN(CC[C@H](Cc1ccccc1)NC(=O)O[C@H]1CCOC1)S(=O)(=O)c1ccc(N)cc1` [Example 28], the IC50 lay in the range of 0.501 to 1 µM.

In turn, `CC(C)c1nc(CN(C)C(=O)N[C@H](C(=O)N[C@H](CCN(Cc2ccccc2)C(=O)OCc2cncs2)Cc2ccccc2)C(C)C)cs1` [Example 103] yielded an IC50 of 0.1 to 0.2 µM.

For `CC(C)CN(CC[C@H](Cc1ccccc1)NC(=O)O[C@H]1CO[C@H]2OCC[C@H]21)S(=O)(=O)c1ccc(N)cc1` [Example 27], the IC50 lay in the range of 0.201 to 0.5 µM.
